Measurements: patent EP0028778B1, “Antibacterial compositions comprising a beta-lactam-type compound and a 3-substituted propenoate” (Merck & Co., Inc., priority 1979, dated 1981)

How the values were obtained:
[1] = test system: rabbits; test: Nephrotoxicity of NFT alone or in combination with DMCO, intravenous, rabbits, 48 hours; format: in vivo, New Zealand white rabbits; settings: for numbers of rabbits with renal tubular necrosis/numbers of rabbits tested / Renal Tubular Necrosis (degree) / BUN / Creatinine: i.v., 48 hours, rabbits; for Renal Tubular Necrosis (degree): histology; for BUN: mean; for Creatinine: mean serum
Experimental: The compound N-formimidoyl theinamycin (NFT) and the compound Z-2-(2,2-dimethylcyclopropane carboxamido)-2-ocetenoic acid (DMCO) were tested in rabbits to evaluate nephrootoxicity.
Either NFT alone or in combination with DMCO was administered intravenously to rabbits. After 48 hours blood samples were taken for determination of BUN and creatinine concentrations and the rabbits were killed for histologic examination of kidney sections.
The study was initiated with 28 New Zealand white rabbits which ranged in age from 23 to 27 weeks, and in weight from 2.78 to 3.71 kg for males and 2.81 to 3.85 kg for females. All animals were housed in individual stainless steel cages and maintained in climate-controlled rooms with access to food (Purina Rabbit Chow) and tap water ad libitum.
NFT was administered to six groups of 2 male and 2 female rabbits each at a nominal dose of 180 mg/kg. Five of these groups received DMCO in addition to NFT at nominal doses of 90, 30, 10, 3 or 1 mg/kg. All doses were administered via the marginal ear vein at a dosage volume of 1.89 ml/kg. An additional group of 2 male and 2 female rabbits received 0.9% sterile saline and served as controls.
NFT was dissolved in solutions of sodium bicarbonate (NFT alone group) or sterile solutions of DMCO in sodium bicarbonate at five different concentrations; these solutions were prepared immediately prior to use.
The mean BUN and serum creatinine concentrations and the degrees of renal tubular epithelial necrosis are shown below in Table I: […]

[2] = test system: rabbits; test: as above; format: in vivo, New Zealand white rabbits; settings: single large doses, within 48 hours, dose rates comparable to those used with cephaloridine

## CCCCC/C=C(\NC(=O)C1CC1(C)C)C(=O)O (centres unmarked) [DMCO, Z-2-(2,2-dimethylcyclopropanecarboxamido)-2-octenoic acid]
[1]; NFT 180 mg/kg + DMCO 1 mg/kg
  numbers of rabbits with renal tubular necrosis/numbers of rabbits tested: 4/4
  Renal Tubular Necrosis (degree): Marked-Severe
  BUN: 64.7^S mg/100 ml
  Creatinine: 4.2^S mg/100 ml
[1]; NFT 180 mg/kg + DMCO 3 mg/kg
  numbers of rabbits with renal tubular necrosis/numbers of rabbits tested: 4/4
  Renal Tubular Necrosis (degree): Marked
  BUN: 65.8^S mg/100 ml
  Creatinine: 4.2^S mg/100 ml
[1]; NFT 180 mg/kg + DMCO 10 mg/kg
  numbers of rabbits with renal tubular necrosis/numbers of rabbits tested: 4/4
  Renal Tubular Necrosis (degree): Moderate-Marked
  BUN: 53.1^S mg/100 ml
  Creatinine: 2.9^S mg/100 ml
[1]; NFT 180 mg/kg + DMCO 30 mg/kg
  numbers of rabbits with renal tubular necrosis/numbers of rabbits tested: 4/4
  Renal Tubular Necrosis (degree): V. Sl.-Moderate
  BUN: 26.1^NS mg/100 ml
  Creatinine: 1.3^NS mg/100 ml
[1]; NFT 180 mg/kg + DMCO 90 mg/kg
  numbers of rabbits with renal tubular necrosis/numbers of rabbits tested: 0/4
  Renal Tubular Necrosis (degree): None
  BUN: 16.6^NS mg/100 ml
  Creatinine: 1.2^NS mg/100 ml
[1]; co-administration with the antibiotic, general statement
  ability to prevent nephrotoxicity: has been shown to possess this property

## C[C@@H](O)[C@H]1C(=O)N2C(C(=O)O)=C(SCCN=CN)C[C@H]12 [NFT, N-formimidoyl thienamycin]
[2]
  nephrotoxic potential in the rabbit laboratory model: nephrotoxic
[1]; NFT 180 mg/kg alone
  numbers of rabbits with renal tubular necrosis/numbers of rabbits tested: 4/4
  Renal Tubular Necrosis (degree): Marked-Severe
  BUN: 70.0^S mg/100 ml
  Creatinine: 4.2^S mg/100 ml
